From US8569339B2, “Soluble guanylate cyclase activators” (Boehringer Ingelheim International GmbH, priority 2011, dated 2013) come the findings set out here.

Data set [1] concerns the target T1, Recombinant human soluble guanylate cyclase (sGC) (Homo sapiens, UniProt Q02153).
T1 construct: histidine tag (C); made in house; host or cells: Sf9 insect cells (baculovirus coinfection)
The data set is described as follows: Molecular assay: activation of heme-free sGC, cGMP detection (CisBio kit). In kind it is biochemical. The following applies: 300 pM heme-free sGC, 37° C., 60 minutes, cGMP formation. On the procedure:
The compounds of the invention may be evaluated in the following molecular assay:
Recombinant human soluble guanylate cyclase (sGC) is purified from Sf9 insect cells coinfected with baculoviruses expressing the alpha 1 or beta 1 subunit of sGC, both with a C-terminal histidine tag. Heme-free sGC is prepared by treating cell lysate with a final concentration of 0.5% Tween 20 prior to purification on a nickel affinity column.
sGC catalyzes the conversion of guanosine-5′-triphosphate (GTP) to cyclic guanosine monophosphate (cGMP). The activity of sGC is measured in vitro using the commercially available CisBio cGMP detection kit (catalog #62GM2PEB) in a 384 well format. In brief, 300 pM heme-free sGC is incubated in reaction buffer (50 mM MOPS pH 6.8, 0.2 N KOH, 50 mM NaCl, 2 mM MgCl2, 0.1% BSA, 1.25 mM IBMX, 0.25 mM TCEP, 50 nM GTP) in the presence or absence of dilutions of test compounds diluted in DMSO (final concentration of 1%) in a volume of 10 microL at 37° C. for 60 minutes. Undiluted reaction products or an 80-fold dilution of reaction products (10 microL of either) prepared in reaction buffer containing 0.2 mM TCEP and 10 mM EDTA is mixed with 5 microL of d2-cGMP plus 5 microL of Eu^3+cryptate-labeled anti-cGMP, each diluted in buffer containing 0.1 M KPO4 pH 7.5, 0.4 M KF, 20 mM EDTA, 0.2% BSA. After a one hour incubation at room temperature in the dark, the mixtures are quantified on an EnVision plate reader (PerkinElmer) according to manufacturer instructions (laser excitation 337 nm, emission 620 and 665 nm). The ratio at each compound concentration is converted to nM cGMP using the linear portion of a calibration curve. Log compound concentration is plotted against combined undiluted and diluted nM cGMP values to determine the EC50 for each curve.
Representative compounds of the present invention were tested for activity in the above assay. Preferred compounds have an IC50<5,000 nM and more preferred compounds have an IC50<100 nM in this assay.

A short description of data set [2]: Assessment of solubility (HT solubility, pION, UV). Type of data set: physicochemical. The following applies: incubated 16-19 hours, 1.0% DMSO, 100 uM; for solubility kinetic: pH 4.5 buffer (pION system solution), pH 4.5, aqueous buffer, kinetic from dmso stock, pH 4.5 buffer, read-out: Sol pH 4.5; for Sol pH 7.4: pH 7.4 buffer. Here is the method: Solubility is measured by the following method.
DMSO stock samples at 10 mM conc are prepared. […] The samples are pierced and 100 ul of thawed samples are transferred into the PCR plate for analysis. Each sample is run in duplicate at each pH (pH 4.5 and 7.4). Up to 95 samples can be run in replicate at 2 pH's+1 DMSO (blank).
2. Preparation of pH 4.5 and 7.4 buffers:
pH 4.5 buffer: To 12.5 of system solution (pION) qs to 500 mL of distilled water (pH 2.85-2.90); adjust the pH to pH 4.5 with 0.5 N NaOH.
pH 7.4 buffer: To 12.5 of system solution (pION) qs to 500 mL of distilled water (pH 2.85-2.90); adjust the pH to pH 7.4 with 0.5N NaOH.
Preparation of UV blank plate:
75 ul of buffer (pH 7.4 or pH 4.5) is added to UV plate followed by addition of […] of N-propanol. The solution is mixed and the blank spectrum is read using spectrophotometer.
Preparation of Reference UV plate:
10 ul of each stock sample (including DMSO control) is added to 190 ul of N-propanol to prepare the reference stock plate. Reference stock samples are mixed and 5 ul of each stock sample is added to UV blank plate after it is read spectrophotometrically. The reference stock sample is mixed with blank solution in UV plate and the reference spectrum is read using UV spectrophotometer.
Preparation of sample for incubation:
Solubility at pH 7.4: 6 ul of each stock sample (including DMSO control) is added to the storage plate containing 600 ul of pH 7.4 buffer, mixed and incubated for 16-19 hours. The plate is sealed well during the incubation process. The DMSO content in the sample is 1.0%. The concn in deep well plates is 100 uM
6 ul of each stock sample (including DMSO control) is added to the deep well plate containing 600 ul of pH 4.5 buffer, mixed and incubated for 16-19 hours. The plate is sealed well during the incubation process. The DMSO content in the sample is 1.0%. The concn in deep well plates is 100 uM
Preparation of sample UV plate:
At the end of the incubation period, 100 uL of sample from the storage plate is vacuum filtered using a filter plate. This step wets the filters and the filtrate is discarded. Another 200 ul of the sample from the deep well plate is vacuum filtered using the same filter block but a clean filter plate. 75 ul of the filtrate from the filter plate is transferred to a UV sample plate. 75 ul of N-propanol is added to this UV plate. The solution is mixed and the spectrum is read using the UV spectrophotometer.
The spectra collected for blank, reference and sample from 250-498 nm is analyzed using pION software. If the sample precipitates out, the solubility is reported as XX μg/ml. If there is no precipitation and the sample is soluble, solubility is reported as […] (YY being the initial concentration of the compound in the sample).

The structures appear in SMILES notation. In brackets after ≈: the same amount, converted by molar mass. Some results are limits rather than exact numbers.

T1 sequence (Q02108 whole entry partner): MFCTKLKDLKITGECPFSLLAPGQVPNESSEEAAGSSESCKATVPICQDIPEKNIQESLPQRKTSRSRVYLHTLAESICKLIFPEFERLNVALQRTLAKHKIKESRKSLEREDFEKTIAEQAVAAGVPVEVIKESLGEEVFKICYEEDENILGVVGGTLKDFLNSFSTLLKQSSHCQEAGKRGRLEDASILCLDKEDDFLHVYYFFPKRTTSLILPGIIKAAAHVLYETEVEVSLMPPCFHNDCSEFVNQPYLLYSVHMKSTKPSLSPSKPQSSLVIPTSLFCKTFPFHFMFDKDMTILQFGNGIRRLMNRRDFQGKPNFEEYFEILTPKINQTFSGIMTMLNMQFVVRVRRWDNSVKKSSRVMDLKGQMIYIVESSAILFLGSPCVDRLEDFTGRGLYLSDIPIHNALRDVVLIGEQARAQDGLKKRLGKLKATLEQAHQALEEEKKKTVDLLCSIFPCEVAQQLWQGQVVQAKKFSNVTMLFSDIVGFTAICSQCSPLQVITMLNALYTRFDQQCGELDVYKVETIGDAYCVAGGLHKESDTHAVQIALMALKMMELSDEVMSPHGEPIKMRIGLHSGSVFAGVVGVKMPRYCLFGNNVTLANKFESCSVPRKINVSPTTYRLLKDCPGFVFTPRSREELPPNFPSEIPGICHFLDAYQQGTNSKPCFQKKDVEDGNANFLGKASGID
T1 sequence (Q02153 whole entry): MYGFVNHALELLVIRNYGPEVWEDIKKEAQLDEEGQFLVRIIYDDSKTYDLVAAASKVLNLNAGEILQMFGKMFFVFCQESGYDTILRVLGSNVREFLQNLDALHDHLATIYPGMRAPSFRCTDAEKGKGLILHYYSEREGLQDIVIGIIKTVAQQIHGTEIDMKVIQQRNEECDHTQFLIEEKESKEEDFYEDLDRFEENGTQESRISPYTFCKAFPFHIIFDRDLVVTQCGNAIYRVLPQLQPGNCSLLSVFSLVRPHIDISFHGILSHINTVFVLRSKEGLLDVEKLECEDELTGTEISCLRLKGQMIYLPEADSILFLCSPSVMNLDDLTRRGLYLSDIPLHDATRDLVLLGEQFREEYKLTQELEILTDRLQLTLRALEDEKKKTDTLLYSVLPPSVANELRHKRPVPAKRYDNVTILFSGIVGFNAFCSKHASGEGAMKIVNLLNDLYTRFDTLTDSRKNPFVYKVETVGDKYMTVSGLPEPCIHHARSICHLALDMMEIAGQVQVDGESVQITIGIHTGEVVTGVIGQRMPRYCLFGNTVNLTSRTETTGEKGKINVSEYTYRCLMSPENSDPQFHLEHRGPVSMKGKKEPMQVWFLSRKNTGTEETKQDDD

As to `Cc1ccc(OCc2ccc3c(c2C)CCN(C)C3)c(-c2cccc(-c3ncc(C(=O)O)n3C)n2)c1` [Compound 48, 2-{6-[2-(2,5-dimethyl-1,2,3,4-tetrahydroisoquinolin-6-ylmethoxy)-5-methylphenyl]pyridin-2-yl}-3-methyl-3H-imidazole-4-carboxylic acid], in data set [1], the half-maximal effective concentration (EC50) was found to be 640 nM. Besides, in data set [2], the solubility kinetic worked out at 5.1 µg/mL (≈ 10.6 µM) and the “Sol pH 7.4” value is given as 1.9 μg/mL.
For the molecule `Cc1ccc(OCc2ccc3c(c2)CCN(Cc2nc(C)cs2)C3)c(-c2cccc(-c3csc(C(=O)O)c3C)n2)c1` [Compound 50], in data set [1], the concentration for a half-maximal effect (EC50) worked out at 380 nM. In data set [2], the solubility kinetic came out at 13.7 µg/mL (≈ 23.5 µM) and the “Sol pH 7.4” value was determined as 13.4 μg/mL.
For `Cc1ccc(OCc2ccc3c(c2)CCN(CC2CCOC2)C3)c(-c2cccc(-c3csc(C(=O)O)c3C)n2)c1` (stereo not drawn) [Compound 51] the same measures were 340 nM, 44.7 µg/mL (≈ 80.6 µM) and 35.9 μg/mL.
For `Cc1ccc(OCc2ccc3c(c2)CN(C)CC3)c(-c2cccc(-n3ncc(C(=O)O)c3C(F)(F)F)n2)c1` [Compound 52] the same measures were 550 nM, over 63 µg/mL and 42.1 μg/mL.
For `Cc1ccc(OCc2ccc3c(c2C)CCN(C2CCOC2)C3)c(-c2cccc(-c3csc(C(=O)O)c3C)n2)c1` (stereo not drawn) [Compound 53] the same measures were 47 nM, 40.1 µg/mL (≈ 72.3 µM) and 51.4 μg/mL.
In the case of `Cc1ccc(OCc2ccc3c(c2C)CCN(C2CCOC2)C3)c(-c2cccc(-c3ncc(C(=O)O)n3C)n2)c1` (stereo not drawn) [Compound 54], the EC50 in data set [1] came out at 165 nM. Besides, in data set [2], the solubility kinetic is over 76 µg/mL and the “Sol pH 7.4” value came to 32.6 μg/mL.
Regarding `Cc1cccc(-c2cccc(-n3cnc(C(=O)O)c3C)n2)c1OCc1ccc2c(c1C)CCN(C1CCOC1)C2` (stereo not drawn) [Compound 55], in data set [1], the half-maximal effective concentration (EC50) came to 44 nM. Also, in data set [2], the solubility kinetic was over 63 µg/mL and the “Sol pH 7.4” value was over 63 μg/mL.
For the molecule `Cc1cccc(-c2cccc(-n3cnc(C(=O)O)c3C)n2)c1OCc1ccc2c(c1C)CCN(Cc1ccccn1)C2` [Compound 56], the concentration for a half-maximal effect (EC50) in data set [1] came out at 31 nM. In addition, in data set [2], the solubility kinetic is over 65 µg/mL and the “Sol pH 7.4” value was over 65 μg/mL.
As for `Cc1cccc(-c2cccc(-n3cnc(C(=O)O)c3C)n2)c1OCc1ccc2c(c1)CCN(C1CCOCC1)C2` [Compound 57, 5-methyl-1-[6-[3-methyl-2-[(2-tetrahydropyran-4-yl-3,4-dihydro-1H-isoquinolin-6-yl)methoxy]phenyl]-2-pyridyl]imidazole-4-carboxylic acid], the EC50 in data set [1] came out at 1100 nM. For the same molecule, in data set [2], the solubility kinetic was over 78 µg/mL and the “Sol pH 7.4” value was over 78 μg/mL.
For `Cc1ccc(OCc2ccc3c(c2)CCN(C2CCOCC2)C3)c(-c2cccc(-n3cnc(C(=O)O)c3C)n2)c1` [Compound 58] the same measures were 2600 nM, over 78 µg/mL and over 78 μg/mL.
`Cc1cccc(-c2cccc(-c3nc(C)c(C(=O)O)s3)n2)c1OCc1ccc2c(c1)CCN(C1CCOCC1)C2` [Compound 59, 4-methyl-2-[6-[3-methyl-2-[(2-tetrahydropyran-4-yl-3,4-dihydro-1H-isoquinolin-6-yl)methoxy]phenyl]-2-pyridyl]thiazole-5-carboxylic acid]: the EC50 in data set [1] was determined as 4200 nM. In data set [2], the solubility kinetic is over 110 µg/mL and the “Sol pH 7.4” value is on record as over 110 μg/mL.
For `Cc1cccc(-c2cccc(-c3csc(C(=O)O)c3C)n2)c1OCc1ccc2c(c1)CCN(C1CCOCC1)C2` [Compound 60] the same measures were 19 nM, over 64 µg/mL and over 64 μg/mL.
For `Cn1c(C(=O)O)cnc1-c1cccc(-c2cccc(C(F)(F)F)c2OCc2ccc3c(c2)CCN(C2CCOCC2)C3)n1` [Compound 61] the same measures were 75 nM, over 110 µg/mL and over 110 μg/mL.
For `Cc1ccc(OCc2cc3c(cc2C)CN(C)CC3)c(-c2cccc(-n3ncc(C(=O)O)c3C(F)(F)F)n2)c1` [Compound 62, 1-[6-[2-[(2,7-dimethyl-3,4-dihydro-1H-isoquinolin-6-yl)methoxy]-5-methylphenyl]-2-pyridyl]-5-(trifluoromethyl)pyrazole-4-carboxylic acid] the same measures were 440 nM, 2.8 µg/mL (≈ 5.22 µM) and 1.2 μg/mL.
Turning to `CCn1c(C(=O)O)cnc1-c1cccc(-c2cccc(C)c2OCc2ccc3c(c2)CCN(C2CCOCC2)C3)n1` [Compound 63, 3-ethyl-2-[6-[3-methyl-2-[(2-tetrahydropyran-4-yl-3,4-dihydro-1H-isoquinolin-6-yl)methoxy]phenyl]-2-pyridyl]imidazole-4-carboxylic acid], the half-maximal effective concentration (EC50) in data set [1] was determined as 14 nM. For the same molecule, in data set [2], the solubility kinetic was over 78 µg/mL and the “Sol pH 7.4” value is reported as 54.2 μg/mL.
`Cc1cccc(-c2cccc(-n3ncc(C(=O)O)c3C)n2)c1OCc1ccc2c(c1)CCN(C1CCOCC1)C2` [Compound 64]: in data set [1], the 50% effective concentration (EC50) came to 21 nM. Moreover, in data set [2], the solubility kinetic is over 78 µg/mL and the “Sol pH 7.4” value was over 78 μg/mL.
Take `Cc1ccc(OCc2ccc3c(c2)CCN(C2CCOCC2)C3)c(-c2cccc(-n3ncc(C(=O)O)c3C)n2)c1` [Compound 65]: in data set [1], the concentration for a half-maximal effect (EC50) is 134 nM. In data set [2], the solubility kinetic was over 53 µg/mL and the “Sol pH 7.4” value is reported as over 53 μg/mL.
As for `Cc1ccc(OCc2ccc3c(c2)CCN(C2CCOCC2)C3)c(-c2cccc(-c3ncc(C(=O)O)n3C)n2)c1` [Compound 66], in data set [1], the concentration giving a half-maximal response (EC50) was 1830 nM. Moreover, in data set [2], the solubility kinetic is over 53 µg/mL and the “Sol pH 7.4” value was over 53 μg/mL.
The like results for `Cc1cccc(-c2cccc(-c3ncc(C(=O)O)n3C)n2)c1OCc1ccc2c(c1)CCN(C1CCOCC1)C2` [Compound 67] were, in that order, 234 nM, over 78 µg/mL and 54.2 μg/mL.
The like results for `Cc1ncc(CN2CCc3cc(COc4c(C)cccc4-c4cccc(-c5ncc(C(=O)O)n5C)n4)ccc3C2)s1` [Compound 70] were, in that order, 37 nM, over 66 µg/mL and over 66 μg/mL.
Consider `CCn1cc(CN2CCc3cc(COc4c(C)cccc4-c4cccc(-c5ncc(C(=O)O)n5C)n4)ccc3C2)cn1` [Compound 71], for which the EC50 in data set [1] was 159 nM. In data set [2], the solubility kinetic is over 67 µg/mL and the “Sol pH 7.4” value is reported as over 67 μg/mL.
